{"source": "paper PMC12388523", "about": "“Flavonoids and Sesquiterpene Lactones from Lychnophora ericoides (Arnica-Do-Cerrado) and Their In Vitro Effects on Multiple Myeloma and Acute Myeloid Leukemia” (Metabolites, 2025)", "key": {"[1]": {"system": "HL-60 cells", "experiment": "Proliferation, [3H]-thymidine uptake, HL-60", "type": "cell-based", "method": "(§1) Acute myeloid leukemia cell line HL-60 and multiple myeloma cell lines AMO-1 and KMS-12-PE were obtained from the German Collection of Microorganisms and Cell Cultures (DSMZ), Braunschweig, Germany, and non-tumorigenic stromal cell line HS-5 was acquired from the American Type Culture Collection (ATCC, Manassas, VA, USA). All cell lines were cultured in RPMI 1640 medium without phenol red (Pan Biotech, Aidenbach, Germany), supplemented with 2 mM glutamine, 100 U/mL penicillin, 100 µg/mL streptomycin (Sigma-Aldrich, St. Louis, MO, USA), and 10% fetal bovine serum (FBS Maximus, Catus Biotech GmbH, Tutzing, Germany) at 37 °C in a humidified atmosphere of 5% CO2/95% air. Cells were fed twice weekly. Logarithmically growing cells were resuspended at 1 × 10^5 cells/mL, plated in triplicate in round-bottom 96-well plates (100 µL per well; Falcon, Becton Dickinson, Franklin Lakes, NJ, USA), and incubated at 37 °C in 5% CO2/95% air for 2 h. Subsequently, the compounds were adjusted in the cell culture medium to reach the final concentrations in a total volume of 150 µL and incubated for an additional 72 h. Cell proliferation was assessed by [^3H]-thymidine uptake. Each well was exposed to 2 µCi [^3H]-thymidine (Hartmann Analytic, Braunschweig, Germany) during the final 12–16 h of incubation. Cells were harvested using a semi-automated device, and [^3H]-thymidine incorporation (expressed in counts per minute, cpm) was measured with a scintillation counter (MicroBeta TriLux, PerkinElmer, Waltham, MA, USA). Metabolic activity was assessed by resazurin staining. Resazurin (Carl Roth, Karlsruhe, Germany) was dissolved in distilled water at a concentration of 0.1 mg/mL, and 15 µL of this solution was added to each well, followed by a 2 h incubation at 37 °C. Relative fluorescence units (RFUs) were measured using a Synergy H1 plate reader equipped with a 560 nm excitation/590 nm emission filter set (BioTek; Agilent, Santa Clara, CA, USA). Proliferation and metabolic activity in the absence of compounds were defined as 100% (control), and the values for compound-treated samples were expressed as percentages relative to the control. Selectivity indices were calculated by dividing the IC50 value of each compound against HS-5 cells through the IC50 values against the investigated cell lines.\n(§2) The Wilcoxon Rank Sum Test was used to analyze proliferation and metabolic activity in the absence and presence of varying compound concentrations (NCSS 2007 software, version 07.1.2, Kaysville, UT, USA). A p-value < 0.05 was considered statistically significant. IC50 values were calculated using GraphPad Prism 10.1.2. This software reports 95% confidence intervals instead of standard errors. […] Nonetheless, the figures clearly illustrate the IC50 values due to the narrow concentration range tested."}, "[2]": {"system": "KMS-12-PE cells", "experiment": "Proliferation, [3H]-thymidine uptake, KMS-12-PE", "type": "cell-based", "method": "as §1, §2"}, "[3]": {"system": "HS-5 cells", "experiment": "Proliferation, [3H]-thymidine uptake, non-malignant HS-5", "type": "cell-based", "settings": "HS5; HS-5 (non-malignant), 72 h, 95% confidence interval in brackets; read-out: IC50 inhibition of proliferation", "method": "as §1, with “Subsequently, the compounds were adjusted in the cell culture medium to reach the final concentrations in a total volume of 150 µL and incubated for an additional 72 h.” left out, “Each well was exposed to 2 µCi [^3H]-thymidine (Hartmann Analytic, Braunschweig, Germany) during the final 12–16 h of incubation.” left out, “Resazurin (Carl Roth, Karlsruhe, Germany) was dissolved in distilled water at a concentration of 0.1 mg/mL, and 15 µL of this solution was added to each well, followed by a 2 h incubation at 37 °C.” left out\n(§3) The Wilcoxon Rank Sum Test was used to analyze proliferation and metabolic activity in the absence and presence of varying compound concentrations (NCSS 2007 software, version 07.1.2, Kaysville, UT, USA). […] IC50 values were calculated using GraphPad Prism 10.1.2. […]"}, "[4]": {"system": "AMO-1 cells", "experiment": "Metabolic activity, resazurin staining, AMO-1", "type": "cell-based", "method": "as §1, §2\n(§4) Proliferation inhibition often leads to cell death. Therefore, the cytotoxic activity of the compounds was further evaluated using a modified 3-(4,5-dimethylthiazol-2-yl)-2,5-diphenyltetrazolium bromide (MTT) assay, the resazurin (Alamar Blue) assay. Metabolically active cells reduce the non-fluorescent dye resazurin to the fluorescent dye resorufin via mitochondrial reductase activity, which correlates with cell viability. In the first step the metabolic activity of the four isolated flavonoids was investigated, showing a dose-dependent reduction, but to a much lower extent than in the proliferation assays (Table A2). In fact, only 7,3′,4′-trimethoxymyricetin (2) inhibited the metabolic activity of all four cell lines by more than 50% at a concentration of 100 µM."}, "[5]": {"system": "KMS-12-PE cells", "experiment": "Metabolic activity, resazurin staining, KMS-12-PE", "type": "cell-based", "method": "as §1, §2, §4"}, "[6]": {"system": "HS-5 cells", "experiment": "Metabolic activity, resazurin staining, non-malignant HS-5", "type": "cell-based", "settings": "HS5, HS-5 (non-malignant), 72 h, 95% confidence interval in brackets, read-out: IC50 inhibition of metabolic activity", "method": "as §1, with “Subsequently, the compounds were adjusted in the cell culture medium to reach the final concentrations in a total volume of 150 µL and incubated for an additional 72 h.” left out, “Each well was exposed to 2 µCi [^3H]-thymidine (Hartmann Analytic, Braunschweig, Germany) during the final 12–16 h of incubation.” left out, “Resazurin (Carl Roth, Karlsruhe, Germany) was dissolved in distilled water at a concentration of 0.1 mg/mL, and 15 µL of this solution was added to each well, followed by a 2 h incubation at 37 °C.” left out\nas §3"}, "[7]": {"system": "HL-60, MOLM-13, AMO-1, and KMS-12 PE cancer cells", "experiment": "Metabolic activity, range over the four tested cancer cell lines", "type": "cell-based", "settings": "HL-60, MOLM-13, AMO-1, KMS-12 PE; read-out: IC50 inhibition of metabolic activity, range over cell lines", "method": "Acute myeloid leukemia cell line HL-60 and multiple myeloma cell lines AMO-1 and KMS-12-PE were obtained from the German Collection of Microorganisms and Cell Cultures (DSMZ), Braunschweig, Germany, and non-tumorigenic stromal cell line HS-5 was acquired from the American Type Culture Collection (ATCC, Manassas, VA, USA). All cell lines were cultured in RPMI 1640 medium without phenol red (Pan Biotech, Aidenbach, Germany), supplemented with 2 mM glutamine, 100 U/mL penicillin, 100 µg/mL streptomycin (Sigma-Aldrich, St. Louis, MO, USA), and 10% fetal bovine serum (FBS Maximus, Catus Biotech GmbH, Tutzing, Germany) at 37 °C in a humidified atmosphere of 5% CO2/95% air. […] Cell proliferation was assessed by [^3H]-thymidine uptake. […] Cells were harvested using a semi-automated device, and [^3H]-thymidine incorporation (expressed in counts per minute, cpm) was measured with a scintillation counter (MicroBeta TriLux, PerkinElmer, Waltham, MA, USA). Metabolic activity was assessed by resazurin staining. […] Relative fluorescence units (RFUs) were measured using a Synergy H1 plate reader equipped with a 560 nm excitation/590 nm emission filter set (BioTek; Agilent, Santa Clara, CA, USA). Proliferation and metabolic activity in the absence of compounds were defined as 100% (control), and the values for compound-treated samples were expressed as percentages relative to the control. […]"}, "[8]": {"system": "NF-κB", "design": "method as in PMID 25621077", "settings": "HT-29; cited from earlier work"}, "[9]": {"system": "CEM", "design": "method as in PMID 15577239", "settings": "cited from earlier work"}, "[10]": {"system": "human colon cancer cell line HT-29", "design": "method as in PMID 22685350", "settings": "cited from earlier work"}, "[11]": {"system": "NF-κB p65", "design": "method as in PMID 22685350", "settings": "read-out: concentration inhibiting NF-κB p65; cited from earlier work"}, "[12]": {"system": "MOLM-13", "design": "method as in PMID 29350920", "settings": "cited from earlier work"}, "[13]": {"system": "EOL-1", "design": "method as in PMID 29350920", "settings": "cited from earlier work"}, "[14]": {"system": "HT-29 cells", "design": "method as in PMID 29350920", "settings": "cited from earlier work"}, "[15]": {"system": "c-Myb-dependent gene expression", "design": "method as in PMID 23501116", "settings": "read-out: IC50 inhibition of c-Myb-dependent gene expression; cited from earlier work"}, "[16]": {"system": "myelomonocytic chicken cell line HD11-C3", "design": "method as in PMID 23501116", "settings": "read-out: IC50 cytotoxic activity; cited from earlier work"}, "[17]": {"system": "KB cell line", "design": "method as in PMID 17089326", "settings": "cited from earlier work"}}}
{"smiles": "C=C(C)C(=O)O[C@H]1C[C@@]2(C)OC(=CC2=O)/C(CO)=C\\[C@H]2OC(=O)C(=C)[C@H]12", "note": "[Compound 5, goyazensolide]", "values": [{"measurement": "IC50", "setting": "[1]; Homo sapiens, HL-60, 72 h, 95% confidence interval in brackets, read-out: IC50 inhibition of proliferation", "result": 1100, "unit": "nM"}, {"measurement": "Selectivity index (proliferation)", "setting": "[1]; IC50 HS-5 / IC50 HL-60", "result": 1.8}, {"measurement": "IC50", "setting": "[2]; Homo sapiens, KMS-12-PE, 72 h, KMS-12-PE, 72 h, 95% confidence interval in brackets, read-out: IC50 inhibition of proliferation", "result": 1500, "unit": "nM"}, {"measurement": "Selectivity index (proliferation)", "setting": "[2]; IC50 HS-5 / IC50 KMS-12-PE", "result": 1.3}, {"measurement": "IC50", "setting": "[3]", "result": 2000, "unit": "nM"}, {"measurement": "IC50", "setting": "[4]; Homo sapiens, AMO1, AMO-1, 72 h, resazurin, 95% confidence interval in brackets, read-out: IC50 inhibition of metabolic activity", "result": 2000, "unit": "nM"}, {"measurement": "Selectivity index (metabolic activity)", "setting": "[4]; IC50 HS-5 / IC50 AMO-1", "result": 1.3}, {"measurement": "IC50", "setting": "[5]; Homo sapiens, KMS-12-PE, 72 h, resazurin, 95% confidence interval in brackets, read-out: IC50 inhibition of metabolic activity", "result": 1900, "unit": "nM"}, {"measurement": "Selectivity index (metabolic activity)", "setting": "[5]; IC50 HS-5 / IC50 KMS-12-PE", "result": 1.4}, {"measurement": "IC50", "setting": "[6]", "result": 2600, "unit": "nM"}, {"measurement": "IC50", "setting": "[7]", "result": "1000 to 2000", "unit": "nM"}, {"measurement": "NF-κB inhibition (in words)", "setting": "[8]", "result": "potent NF-κB inhibitor"}, {"measurement": "IC50", "setting": "[9]", "result": 170, "unit": "nM"}, {"measurement": "IC50", "setting": "[10]", "result": 560, "unit": "nM"}, {"measurement": "IC50", "setting": "[11]", "result": 3800, "unit": "nM"}, {"measurement": "IC50", "setting": "[12]", "result": 860, "unit": "nM"}, {"measurement": "IC50", "setting": "[13]", "result": 1100, "unit": "nM"}, {"measurement": "IC50", "setting": "[14]", "result": 560, "unit": "nM"}, {"measurement": "IC50", "setting": "[15]", "result": 630, "unit": "nM"}, {"measurement": "IC50", "setting": "[16]", "result": 10000, "unit": "nM"}, {"measurement": "IC50", "setting": "[17]", "result": "< 300", "unit": "nM"}]}
